Test results from the supplement of paper PMC13380429.

Columns and labels:
Settings in all cases: 72 h
U2OS [1] = test: cell viability relative to DMSO; higher = less toxic
HepG2 [2] = test: as above
Calu-3 [3] = test: as above
Vero E6 [4] = test: as above
Caco-2 [5] = test: as above
U2OS [6] = test: relative viability EC50 (midpoint between 100% and the lowest measured viability); higher = less toxic
HepG2 [7] = test: as above
Calu-3 [8] = test: as above
Vero E6 [9] = test: as above
Caco-2 [10] = test: as above
U2OS [11] = test: drug sensitivity score (DSS) for viability; higher = more toxic; extreme values may be limits of the assay
HepG2 [12] = test: as above
Calu-3 [13] = test: as above
Vero E6 [14] = test: as above
Caco-2 [15] = test: as above

Row | Compound | cell viability (U2OS [1]; 1 nM) [%] | cell viability (U2OS [1]; 10 nM) [%] | cell viability (U2OS [1]; 100 nM) [%] | cell viability (U2OS [1]; 1000 nM) [%] | cell viability (U2OS [1]; 10000 nM) [%] | cell viability (HepG2 [2]; 1 nM) [%] | cell viability (HepG2 [2]; 10 nM) [%] | cell viability (HepG2 [2]; 100 nM) [%] | cell viability (HepG2 [2]; 1000 nM) [%] | cell viability (HepG2 [2]; 10000 nM) [%] | cell viability (Calu-3 [3]; 1 nM) [%] | cell viability (Calu-3 [3]; 10 nM) [%] | cell viability (Calu-3 [3]; 100 nM) [%] | cell viability (Calu-3 [3]; 1000 nM) [%] | cell viability (Calu-3 [3]; 10000 nM) [%] | cell viability (Vero E6 [4]; 1 nM) [%] | cell viability (Vero E6 [4]; 10 nM) [%] | cell viability (Vero E6 [4]; 100 nM) [%] | cell viability (Vero E6 [4]; 1000 nM) [%] | cell viability (Vero E6 [4]; 10000 nM) [%] | cell viability (Caco-2 [5]; 1 nM) [%] | cell viability (Caco-2 [5]; 10 nM) [%] | cell viability (Caco-2 [5]; 100 nM) [%] | cell viability (Caco-2 [5]; 1000 nM) [%] | cell viability (Caco-2 [5]; 10000 nM) [%] | relative viability EC50 (U2OS [6]) [µM] | relative viability EC50 (HepG2 [7]) [µM] | relative viability EC50 (Calu-3 [8]) [µM] | relative viability EC50 (Vero E6 [9]) [µM] | relative viability EC50 (Caco-2 [10]) [µM] | drug sensitivity score (U2OS [11]) | drug sensitivity score (HepG2 [12]) | drug sensitivity score (Calu-3 [13]) | drug sensitivity score (Vero E6 [14]) | drug sensitivity score (Caco-2 [15])
1 | Cc1nc2n(c(=O)c1CCN1CCC(c3noc4cc(F)ccc34)CC1)CCCC2O (stereo not given) [paliperidone] | 99.5 | 103 | 97 | 101 | 99.9 | 107 | 104 | 108 | 95 | 100 | 104 | 104 | 93.2 | 100 | 102 | 113 | 106 | 109 | 103 | 92.4 | 93.6 | 106 | 90.7 | 104 | 118 | > 10 | > 10 | > 10 | > 10 | > 10 | 0 | 0 | 0 | 0 | 0
2 | Cc1cccc(Nc2cc(Cl)nc(SCC(=O)O)n2)c1C [pirinixic-acid] | 103 | 104 | 95.7 | 102 | 97.1 | 98.8 | 99.4 | 94.8 | 99.2 | 101 | 99.9 | 102 | 93.7 | 114 | 97.4 | 100 | 95.3 | 98.8 | 95.9 | 100 | 90 | 95.2 | 98.8 | 98.1 | 87.2 | > 10 | > 10 | > 10 | > 10 | > 10 | 0 | 0 | 0 | 0 | 0
3 | CC(C)(C)C(=O)NCCCC(=O)O [pivagabine] | 101 | 105 | 98.4 | 101 | 102 | 99 | 111 | 98.5 | 106 | 108 | 101 | 110 | 98.3 | 99.1 | 106 | 95.1 | 99.2 | 96.4 | 98.3 | 91.7 | 92.3 | 97.2 | 88.8 | 95.9 | 92.2 | > 10 | > 10 | > 10 | > 10 | > 10 | 0 | 0 | 0 | 0 | 0
4 | CC(C(=O)O)c1ccc2c(c1)Cc1cccnc1O2 (stereo not given) [pranoprofen] | 104 | 99.1 | 95.2 | 104 | 106 | 95.8 | 103 | 94.1 | 104 | 111 | 97.5 | 92.9 | 97.1 | 100 | 108 | 96.2 | 96.5 | 98.4 | 100 | 105 | 88.3 | 86.7 | 89.5 | 95.3 | 102 | > 10 | > 10 | > 10 | > 10 | > 10 | 0 | 0 | 0 | 0 | 0
5 | CC(=O)[C@H]1CC[C@H]2[C@@H]3CCC4=CC(=O)CC[C@]4(C)[C@H]3CC[C@]12C [progesterone] | 100 | 98 | 101 | 100 | 96.8 | 102 | 99.9 | 102 | 96.4 | 95.6 | 95 | 98.4 | 87.2 | 94.5 | 92 | 92 | 108 | 91.3 | 96.8 | 110 | 97.4 | 98.8 | 98.4 | 87.2 | 82.9 | > 10 | > 10 | > 10 | > 10 | > 10 | 0 | 0 | 0 | 0 | 1.3
6 | COc1ccccc1OCC(O)CN1CCN(CC(=O)Nc2c(C)cccc2C)CC1 (stereo not given) [ranolazine] | 98.6 | 93.4 | 102 | 96.1 | 102 | 97.5 | 97.9 | 93 | 96.7 | 102 | 95 | 91.8 | 102 | 105 | 105 | 90.5 | 97.3 | 89.5 | 90.7 | 104 | 100 | 96.9 | 106 | 99.2 | 99.1 | > 10 | > 10 | > 10 | > 10 | > 10 | 0 | 0 | 0 | 0 | 0
7 | CCOc1ccccc1OC(c1ccccc1)C1CNCCO1 (stereo not given) [reboxetine] | 101 | 101 | 98.8 | 101 | 104 | 105 | 121 | 95.5 | 106 | 102 | 107 | 96.5 | 99.4 | 104 | 94.3 | 102 | 102 | 102 | 98.4 | 95.6 | 104 | 97.9 | 97.1 | 104 | 104 | > 10 | > 10 | > 10 | > 10 | > 10 | 0 | 0 | 0 | 0 | 0
8 | O=C(Nc1c(Cl)cncc1Cl)c1ccc(OC(F)F)c(OCC2CC2)c1 [roflumilast] | 96.4 | 98.5 | 94.2 | 94.8 | 99.5 | 106 | 96.9 | 101 | 101 | 128 | 89.1 | 107 | 94.2 | 93.8 | 98.6 | 101 | 91.2 | 99.3 | 102 | 103 | 104 | 101 | 97.3 | 100 | 101 | > 10 | > 10 | > 10 | > 10 | > 10 | 0 | 0 | 0 | 0 | 0
9 | C[C@@H]1O[C@@H](OC[C@H]2O[C@@H](Oc3c(-c4ccc(O)c(O)c4)oc4cc(O)cc(O)c4c3=O)[C@H](O)[C@@H](O)[C@@H]2O)[C@H](O)[C@H](O)[C@H]1O [rutin] | 101 | 107 | 96.1 | 98.5 | 102 | 104 | 101 | 86 | 106 | 98.1 | 107 | 90.4 | 102 | 85.9 | 101 | 98.6 | 100 | 98.8 | 111 | 104 | 118 | 98.9 | 115 | 101 | 113 | > 10 | > 10 | > 10 | > 10 | > 10 | 0 | 0 | 0 | 0 | 0
10 | NC(=O)c1ccccc1O [salicylamide] | 97.9 | 108 | 95.6 | 102 | 98.9 | 98.5 | 99.6 | 98.5 | 91.2 | 99.7 | 105 | 105 | 92 | 100 | 104 | 98 | 93.9 | 102 | 97.9 | 93 | 93.6 | 99 | 78.2 | 84.8 | 79.2 | > 10 | > 10 | > 10 | > 10 | > 10 | 0 | 0 | 0 | 0 | 5.7
11 | COCCNC(=O)Cn1cnc([N+](=O)[O-])n1 [sanazole] | 98.3 | 104 | 96.7 | 97.7 | 95.8 | 103 | 93.3 | 102 | 95.7 | 97.6 | 96.7 | 106 | 97.6 | 102 | 103 | 99.5 | 99.1 | 95.7 | 101 | 96.6 | 93 | 99.6 | 95.9 | 93.9 | 93.4 | > 10 | > 10 | > 10 | > 10 | > 10 | 0 | 0 | 0 | 0 | 0
